Key:
[1] = test system: H1299; assay: MTT cytotoxicity assay, 72 h; type: cell-based; settings: Homo sapiens, NCI-H1299, H1299 NSCLC cells, plated to confluence, read-out: IC50 (mean cytotoxic concentration, MTT)
Experimental: (§1) To determine whether the effects on cell viability in AML cells were related to the specific cancer subtypes, or to differences in temporal response to DJ4, we examined whether DJ4 affected the viability of various NSCLC cells over longer periods of drug exposure. MTT assays were performed on H1299, H226, A549, H522, H23, and H460 NSCLC cell lines. […] Similarly, the cell viability of MDA-MB-231 breast cancer cells was assessed by counting live/dead cell populations after a 24-h treatment with 1–10 µM concentrations of DJ4. A concentration-dependent increase in cell death from 29% (1 µM) to 47% (10 µM) was observed (Figure 2B).
(§2) The cytotoxic effect of DJ4 was studied in H1299, H226, A549, H522, H23, and H460 non-small cell lung cancer cells. The cells were seeded into 96-well plates with confluence ([…]). The cells were further treated with DMSO or DJ4 for 72 h. To study the effects of analogs, A549, A375M, and MDA-MB-231 cells were plated with low density (2000 cells/well) in a 96-well plate and grown overnight at 37 °C (with 5% CO2). Cells were treated with the analogs at the concentration of 0–10 µM for 48 h. At the end of the treatment period, cells were incubated with a tetrazolium dye MTT (3-(4,5-dimethylthiazol-2-yl)-2,5-diphenyltetrazolium bromide) reagent (Sigma) at 37 °C for 3 h to develop formazan crystals. The media was siphoned off and crystals were dissolved in DMSO and mixed gently on rocker for 5 min. Absorbance was read at 570 nm and 630 nm (background) wavelength. IC50 values were calculated from non-linear regression curve fit by using GraphPad Prism 5.0 software.

[2] = test system: H522; assay: MTT cytotoxicity assay, 72 h; type: cell-based; settings: Homo sapiens, NCI-H522, H522 NSCLC cells, plated to confluence, read-out: IC50 (mean cytotoxic concentration, MTT)
Experimental: as §1, §2

[3] = test system: A549; assay: MTT cytotoxicity assay, 72 h; type: cell-based; settings: Homo sapiens, A549 NSCLC cells, plated to confluence, read-out: IC50 (mean cytotoxic concentration, MTT)
Experimental: as §1, §2

[4] = test system: H226; assay: MTT cytotoxicity assay, 72 h; type: cell-based; settings: Homo sapiens, NCI-H226, H226 NSCLC cells, plated to confluence, read-out: IC50 (mean cytotoxic concentration, MTT)
Experimental: as §1, §2

[5] = test system: H23; assay: MTT cytotoxicity assay, 72 h; type: cell-based; settings: Homo sapiens, NCI-H23, H23 NSCLC cells, plated to confluence, read-out: IC50 (mean cytotoxic concentration, MTT)
Experimental: as §1, §2

[6] = test system: H460; assay: MTT cytotoxicity assay, 72 h; type: cell-based; settings: Homo sapiens, NCI-H460, H460 NSCLC cells, plated to confluence, read-out: IC50 (mean cytotoxic concentration, MTT)
Experimental: as §1, §2

[7] = test system: HL60VCR acute myeloid leukemia cells; assay: Cell number and cell cycle in multidrug resistant cells; type: cell-based, human; settings: 2.5 µM and 5 µM
Experimental: The following cell lines used in this study were obtained from ATCC: NSCLC (A549, CCL-185; H522, CRL-5810; H23, CRL-5800; H2126, CCL-256; H460, HTB-177), melanoma (A375M, CRL-1619), and breast cancer (MDA-MB-231, HTB-26). Cells were maintained in DMEM or RPMI media (Cellgro, Corning, NY, USA) supplemented with 10% fetal bovine serum (Gibco, Fisher Scientific, Hampton, NH, USA) and penicillin/streptomycin (Gibco, Fisher Scientific, Hampton, NH, USA) at 37 °C with 5% CO2 humidified incubator. Acute myeloid leukemia cells (AML, HL60; CCL240) were obtained from ATCC while vincristine resistant HL60 (HL60VCR) cells were a gift from Dr. Hong-Gang Wang (Penn State College of Medicine, Hershey, PA, USA) and both the cells were cultured in IMDM medium (HyClone, Washington, D.C., USA) with 10% FBS.
Figure S3. DJ4 was ineffective in multidrug resistant HL60VCR acute myeloid leukemia cells.
A. Endogenous expression of p-glycoprotein (P-gp) in HL60 and HL60VCR (multidrug resistant cells). β-Actin was used as internal control.
B. P-gp inhibitor cyclosporine A (CsA) treatment (2.5 µM) sensitized resistant cancer cells to DJ4. […] Number of cells were counted using MuseTM cell analyzer.
Statistical significance was analyzed by one-way ANOVA and Dunnett’s multiple comparison post-test. […]
C. […] The cells were treated at 2.5 µM and 5 µM concentrations and analyzed using flow cytometry. […]

[8] = test system: A549 cells; assay: Western blot of cell cycle regulatory proteins; type: cell-based, human
Experimental: To better understand the anti-proliferative and pro-apoptotic effects of DJ4, expression of key proteins involved in proliferation and apoptosis were determined by a Western blot. A549 cells were treated with 2.5 µM and 10 µM concentrations for 24 h and 48 h. […] We also examined the expression of cyclin D3 and CDK4 (G1/S cell cycle checkpoint kinase).
For protein expression studies, MDA-MB-231 cells were treated with indicated concentrations of DJ4 for 24 h. Additionally, A549 cells were treated for 24 h and 48 h. Cell lysate preparation, protein estimation, and Western blot analysis was performed as per the procedure reported earlier. The blots were probed with cleaved caspase 7 (#9492, Cell Signaling, Danvers, MA, USA), GAPDH (#97166, Cell Signaling, Danvers, MA, USA), β-Actin (#3700, Cell Signaling, Danvers, MA, USA), pErk (#5726, Cell Signaling, Danvers, MA, USA), p21 ^WAF1/CIP1 (#60480, Cell Signaling, Danvers, MA, USA), cyclinD3 (#2936, Cell Signaling, Danvers, MA, USA), CDK4 (#23972, Cell Signaling, Danvers, MA, USA), cleaved PARP (#32563, Cell Signaling, Danvers, MA, USA), pan Erk (#23887, Cell Signaling, Danvers, MA, USA), pMYPT1 (Thr853, # SAB4503944, Millipore, Inc., Burlington, MA, USA) and PCNA (#sc-56, Santa Cruz Biotechnology, Inc., Dallas, TX, USA) antibodies.

For `O=C1N/C(=N\CCc2ccccc2)S/C1=C/c1c[nH]c2ncccc12` [DJ4], the IC50 [1] was 440 ± 40 nM, the IC50 [2] was 1690 ± 480 nM and the IC50 [3] was 980 ± 210 nM. For the same molecule, the IC50 [4] was 670 ± 380 nM, the IC50 [5] was 2910 ± 710 nM and the IC50 [6] was 9530 nM. For the same molecule, the “effect in multidrug resistant cells” value [7] was “ineffective”, the “activation of Erk1/2 (phospho-Erk; pERK)” value ([8]; A549, 2.5 µM, 24 h) was “significantly induced activation” and the “expression of CDK4” value ([8]; A549, 2.5 µM, 24 h) was “upregulated”. For the same molecule, the “expression of cyclin D3” value ([8]; A549, 2.5 µM, 24 h) was “upregulated”, the “expression of p21 WAF1/CIP1” value ([8]; A549, 2.5 µM, 24 h) was “upregulated” and the “expression of p21 WAF1/CIP1, pERK, CDK4, and cyclin D3” value ([8]; A549, 10 µM, 24 h and 48 h) was “decreased below vehicle treatment levels”.
